{"source": "patent US11400136B2", "about": "“Methods and compositions for treating a microbial infection” (priority 2017, dated 2022)", "key": {"S. pyogenes M1 [1]": {"tested_on": "S. pyogenes M1", "type": "in vivo, mouse"}, "S. pyogenes M1 [2]": {"tested_on": "S. pyogenes M1", "type": "cell-based, Streptococcus pyogenes", "conditions": "1 h"}, "S. pyogenes M1 [3]": {"tested_on": "S. pyogenes M1", "type": "cell-based, mouse"}, "[4]": {"tested_on": "TRPV1-positive nociceptors", "experiment": "Ablation of TRPV1+ nociceptors, quantification of DRG/vagal ganglia neurons", "conditions": "mouse, in vivo"}, "S. aureus USA300": {"tested_on": "S. aureus USA300", "experiment": "S. aureus (MRSA) lung infection / lethal pneumonia", "type": "in vivo, mouse"}, "S. pyogenes M1 [5]": {"tested_on": "S. pyogenes M1", "type": "in vivo, mouse", "remark": "listed apart in the source"}, "[6]": {"tested_on": "Pseudomonas aeruginosa strain PA01V", "experiment": "P. aeruginosa lung infection", "type": "in vivo, mouse", "conditions": "RTX vs vehicle"}, "[7]": {"tested_on": "Streptococcus pneumoniae strain WU-2", "experiment": "S. pneumoniae lung infection", "type": "in vivo, mouse", "conditions": "RTX vs vehicle; P=0.13"}, "[8]": {"type": "in vivo, mouse", "conditions": "RTX-treated vs vehicle; steady state", "experimental": "Vital sign measurements. Heart rate, oxygen saturation and perfusion were measured under isoflurane anesthesia by Pulse Oximetry using the Kent Scientific PhysioSuite (Kent Scientific Corporation). For accuracy, measurements were performed three independent times on different days for the same mice, and values represent the average of three measurements. Pulse Oximetry could not be used on MRSA infected mice because they could not survive isoflurane anesthesia, and thus the measurements were only performed at steady state. Respiratory rates were determined by manually recording number of breaths per minute and averaged over three measurements. Core body temperature was measured using a rectal thermal probe (Bioseb)."}, "[9]": {"experiment": "Heat sensitivity (hot plate and tail-flick assays)", "type": "in vivo, mouse", "conditions": "RTX vs vehicle", "experimental": "Behavior tests. For behavioral assays, observers were blinded to treatment group and genotype. To measure heat sensitivity, mice were placed on a hot plate set at 52° C. (IITC Life Science). Latency to hindpaw lifting/licking/flinching was recorded, and stopped at a maximum of 60 seconds. For tail-flick assay, mice were kept vertically in a relaxed fashion with their tail immersed in a temperature-controlled water bath maintained at 52° C. The latency to a tail flick was recorded, with maximum of 60 seconds."}, "neutrophils": {"tested_on": "neutrophils", "experiment": "Pulmonary intravital microscopy of neutrophils", "type": "in vivo, mouse", "conditions": "RTX", "experimental": "Pulmonary intravital microscopy. […]. To visualize neutrophils and endothelium, 3.5 μg Alexa Fluor 594 conjugated anti-Ly6G antibody (clone 1A8, BioLegend) and 5 μg Alexa Fluor 647 conjugated anti-CD31 antibody (clone MEC13.3, BioLegend) were injected intravenously. Mice were placed on a heating pad maintained at 37° C. and connected to mechanical ventilation (Harvard Apparatus) after a tracheostomy is performed. Mice were kept in a right lateral decubitus position and their left lung was exposed after a thoracotomy and rib resection. A portion of the lung was immobilized via a gentle vacuum chamber with a glass slide fitted on top. A resonant-scanner confocal microscope (Leica SP8) equipped with a white light laser and three HyD spectral detectors and a 25×/0.9 water objective lens were used for intravital microscopy. Images were acquired every 10 s for a total of 10 min, three to five fields of view were observed. All videos and images were processed and analyzed using Leica software and Volocity software. For neutrophil behavior analysis, tethering was defined as rapid movement with blood flow and stop for less than 30 s. Adhesion was defined as neutrophils that remained stationary for 30 s or longer. Crawling was defined as polarized cells that maintained continuous contact with the endothelium while changing physical location for at least 30 s. Random neutrophils were tracked manually in 10-min videos by using Volocity software."}, "Klebsiella pneumoniae": {"tested_on": "Klebsiella pneumoniae", "experiment": "K. pneumoniae lung infection", "type": "in vivo, mouse", "conditions": "RTX vs vehicle"}, "skin punch biopsies": {"tested_on": "skin punch biopsies", "experiment": "CGRP release assay from skin explants", "type": "in vivo, mouse", "conditions": "RTX-treated vs vehicle; 7 h", "experimental": "CGRP release assay from skin explants. Skin punch biopsies (12 mm) were collected from the uninfected or infected flank skin samples of euthanized mice, and rapidly transferred to 24-well plates containing 1 mL of DMEM. Explants were incubated at 32° C. with gentle shaking (150 rpm) for 30 min."}}, "note": "Entries after “also recorded” stand apart in the source; their conditions may differ. Where two headings read alike, the source gives them in different places.", "data": [{"compound": "NCCCC[C@H](NC(=O)[C@@H](Cc1cc(Br)c(O)c(Br)c1)NC(=O)N1CCC(N2Cc3ccccc3NC2=O)CC1)C(=O)N1CCN(c2ccncc2)CC1", "note": "[BIBN4096]", "values": [{"measurement": "abscess formation", "setting": "S. pyogenes M1 [1]; mouse, in vivo, 30 mg/kg", "value": "significantly decreases abscess formation; also recorded: reduced abscesses"}, {"measurement": "dermonecrotic lesion size", "setting": "S. pyogenes M1 [1]; mouse, in vivo, ip, 30 mg/kg", "value": "significantly smaller lesion formation; also recorded: smaller dermonecrotic lesions"}, {"measurement": "neutrophil (CD11b+Ly6G+) recruitment to infected area", "setting": "S. pyogenes M1 [1]; treated 2 h after infection, 1 day after injection", "value": "increased the recruitment of neutrophils"}, {"measurement": "bacterial load recovery, flank skin and spleen", "setting": "S. pyogenes M1 [1]; treated 2 h after infection, 9 days after injection of bacteria", "value": "decreases flank skin and spleen bacterial burdens; also recorded: increased bacterial clearance in the skin"}, {"measurement": "direct effects on S. pyogenes growth or viability", "setting": "S. pyogenes M1 [2]", "value": "did not have direct effects"}, {"measurement": "neutrophil killing of S. pyogenes suppressed by DRG neurons", "setting": "S. pyogenes M1 [3]", "value": "enhances neutrophil killing of bacteria; also recorded: prevented the suppressive effects"}]}, {"compound": "C=C(C)[C@]12C[C@@H](C)[C@@]34O[C@](Cc5ccccc5)(O[C@@H]1[C@@H]3C=C(COC(=O)Cc1ccc(O)c(OC)c1)C[C@]1(O)C(=O)C(C)=C[C@@H]41)O2", "note": "[RTX, Resiniferatoxin]", "values": [{"measurement": "TRPV1+ and CGRP+ neurons in DRG (and vagal/nodose ganglia)", "setting": "[4]", "value": "significant loss of CGRP+ nociceptive neurons; also recorded: led to loss of TRPV1+ and CGRP+ neurons; also recorded: loss of TRPV1+ and CGRP+ neurons in DRG and VG"}, {"measurement": "dermonecrosis", "setting": "S. pyogenes M1 [1]; RTX 30, 70, 100 μg/kg s.c., infection 4 weeks later", "value": "significantly less dermonecrosis"}, {"measurement": "S. pyogenes in lesions, quantitative cultures", "setting": "S. pyogenes M1 [1]; RTX-treated vs vehicle", "value": "log-fold reductions of S. pyogenes"}, {"measurement": "body weight regain", "setting": "S. pyogenes M1 [1]; RTX-treated vs vehicle", "value": "regained body weight faster"}, {"measurement": "skin abscess size", "setting": "S. pyogenes M1 [1]; RTX-treated vs vehicle", "value": "resolved faster"}, {"measurement": "monocytes, other myeloid cells, CD11b-CD45+ leukocytes (FACS)", "setting": "S. pyogenes M1 [1]; RTX-treated vs vehicle, 1 day", "value": "not detected"}, {"measurement": "skin histopathology", "setting": "S. pyogenes M1 [1]; RTX-treated, day 3", "value": "containment of the bacterial infection within a circumscribed abscess containing polymorphonuclear leukocytes"}, {"measurement": "S. pyogenes cultured from spleens", "setting": "S. pyogenes M1 [1]; RTX-treated, day 9", "value": "did not yield detectable bacteria"}, {"measurement": "mice succumbed to / died from infection", "setting": "S. aureus USA300; RTX-treated mice given GR1 or control IgG", "value": 0, "unit": "%"}, {"measurement": "lung bacterial burdens / clearance", "setting": "S. aureus USA300; RTX-treated vs vehicle, 12 h", "value": "significantly improved; also recorded: reduced lung bacterial burdens"}, {"measurement": "core body temperature", "setting": "S. aureus USA300; RTX-treated vs vehicle, lethal MRSA", "value": "improved maintenance of core-body temperature"}, {"measurement": "survival", "setting": "S. aureus USA300; RTX-treated vs vehicle, lethal MRSA intra-tracheal", "value": "significantly improved survival; also recorded: the majority of RTX-treated mice survived"}, {"measurement": "BALF total protein, TNF-α, IL-6 and CXCL-1 induction", "setting": "S. aureus USA300; RTX, 6 h", "value": "faster kinetics in the induction"}, {"measurement": "CD11b+Ly6G+ lung neutrophil recruitment", "setting": "S. aureus USA300; RTX, 6 h and 12 h post-infection", "value": "striking increase"}, {"measurement": "gram-positive bacterial colonies in lung (Brown and Brenn)", "setting": "S. aureus USA300; RTX, 12 h and 24 h", "value": "few bacterial colonies"}, {"measurement": "lung cellular immune influx (H&E)", "setting": "S. aureus USA300; RTX, 12 h and 24 h post-infection", "value": "increased cellular immune influx"}, {"measurement": "BALF TNF-α, IL-6 and CXCL-1 levels", "setting": "S. aureus USA300; RTX, 12 h post-infection", "value": "markedly reduced"}, {"measurement": "CGRP levels in BALF", "setting": "S. aureus USA300; RTX, 12 h post-infection", "value": "significantly reduced"}, {"measurement": "bacterial load recovery, sub-lethal dose", "setting": "S. aureus USA300; RTX, S. aureus 2-4×10^7 CFU", "value": "enhanced protection"}, {"measurement": "heat hyperalgesia", "setting": "S. pyogenes M1 [5]; RTX-treated", "value": "abrogated"}, {"measurement": "mechanical hyperalgesia", "setting": "S. pyogenes M1 [5]; RTX-treated", "value": "abrogated"}, {"measurement": "spontaneous pain behaviors", "setting": "S. pyogenes M1 [5]; RTX-treated", "value": "abrogated"}, {"measurement": "survival", "setting": "[6]", "value": "did not impact death"}, {"measurement": "survival", "setting": "[7]", "value": "modest but non-significant protective effect"}, {"measurement": "oxygen saturation, heart rate, perfusion, respiratory rates", "setting": "[8]", "value": "did not differ"}, {"measurement": "latency to noxious heat", "setting": "[9]", "value": "increased latency to noxious heat"}, {"measurement": "neutrophil crawling distances", "setting": "neutrophils", "value": "significantly increased crawling distances"}, {"measurement": "neutrophil vascular crawling", "setting": "neutrophils", "value": "a significant proportion of neutrophils demonstrated vascular crawling"}, {"measurement": "neutrophils recruited to pulmonary capillaries", "setting": "neutrophils; 4 h post-infection GFP-S. aureus", "value": "significantly more neutrophils"}, {"measurement": "survival", "setting": "Klebsiella pneumoniae", "value": "did not impact death"}, {"measurement": "CGRP release in infected tissues", "setting": "skin punch biopsies", "value": "lower CGRP release in infected tissues"}]}, {"compound": "CGRP8-37 (VTHRLAGLLSRSGGVVKNNFVPTNVGSKAF; Calcitonin gene-related peptide 1; UniProt P06881 90-119, looked up, fragment)", "values": [{"measurement": "survival", "setting": "S. aureus USA300; CGRP8-37 800 ng i.p. at -24, -2, 12, 24, 36, 48 h", "value": "improved survival"}, {"measurement": "core body temperature maintenance", "setting": "S. aureus USA300; CGRP8-37 800 ng i.p. before and after infection", "value": "improved"}, {"measurement": "core body temperature", "setting": "S. aureus USA300; CGRP8-37 7.5 μg i.p. after infection", "value": "significantly improved"}, {"measurement": "survival", "setting": "S. aureus USA300; CGRP8-37 7.5 μg i.p. at 4, 16, 24 h after infection", "value": "significantly improved survival"}, {"measurement": "core-body temperature", "setting": "S. aureus USA300; CGRP8-37 i.p. 12 hours prior and 12 hours after infection", "value": "maintenance of core-body temperature"}, {"measurement": "survival", "setting": "S. aureus USA300; CGRP8-37 i.p. 12 hours prior and 12 hours after infection, 10^7 CFU", "value": "significantly improved survival"}, {"measurement": "direct effects on S. pyogenes growth or viability", "setting": "S. pyogenes M1 [2]", "value": "did not have direct effects"}, {"measurement": "neutrophil killing of S. pyogenes suppressed by DRG neurons", "setting": "S. pyogenes M1 [3]", "value": "enhances neutrophil killing of bacteria; also recorded: prevented the suppressive effects"}]}, {"compound": "CC(C)Cc1ccc(C(C)C(=O)O)cc1", "note": "(centres unmarked) [Ibuprofen]", "values": [{"measurement": "heat hyperalgesia", "setting": "S. pyogenes M1 [5]; ibuprofen 50 mg/kg", "value": "had no effect"}, {"measurement": "mechanical hyperalgesia", "setting": "S. pyogenes M1 [5]; ibuprofen 50 mg/kg", "value": "had no effect"}]}]}
